The results in this text go back to PMC9144145, “Preclinical Safety and Pharmacokinetics of Heat Stable Oxytocin in Sublingual Fast-Dissolving Tablet Formulation” (Pharmaceutics, 2022).

SMILES strings stand for the structures.

This data set is described as follows: GLP toxicokinetic study in anesthetized rabbits, plasma oxytocin by LC-MS/MS. Type of data set: in vivo. The settings on record: rabbit, IM, 10 IU. Here is the method:
The toxicokinetic study in rabbits (Table 2) was conducted at a contract animal facility (Noble Life Sciences, Sykesville, MD, USA) under approval from Noble Life Sciences IACUC (approval code: NLS-589, date: 13 May 2020) and in compliance with the U.S. Food and Drug Administration Good Laboratory Practice Regulations for Nonclinical Laboratory Studies (21 CFR Part 58).
For SL placement of fast dissolving tablets, the rabbit was anesthetized and positioned on a flat table, with the lower jaw strongly supported in a horizontal level on the table. Using rounded tip stainless tweezers, the rabbit’s tongue was carefully raised, and the sublingual tablet was placed beneath the tongue (see Figure 1). Anesthesia was maintained for 3 h after drug administration to keep the tablet in sublingual position and prevent entering the gastrointestinal tract.
Animals were not fasted prior to blood collection. Blood was collected at the time points of 0 min (pre-dose) and 5, 10, 15, 20, 30, 60, 120, and 180 min post-dose and at euthanasia only the first four animals for SL group. All animals were anesthetized pre-dose, prior to dosing. All animals were anesthetized with ketamine (35–50 mg/kg) and xylazine (3–5 mg/kg) via a subcutaneous or intramuscular (IM) route followed by maintenance anesthesia with additional half doses if needed or via inhaled isoflurane. At the selected time points, whole blood was collected aseptically from the auricular artery and dispensed into the appropriate collection tubes in any order: (1) K3 EDTA for hematology determinations; (2) 0.129 M, 3.8% sodium citrate for coagulation analyses (plasma); (3) serum separator tube for serum chemistry and C-reactive protein; and (4) aprotinin-spiked (K2EDTA) tubes for plasma oxytocin determinations. Tubes containing hematology specimens were placed at room temperature on a rocker for at least 30 min prior to shipment. Tubes containing whole blood for serum isolation were maintained for at least 30 min and no more than 4 h at room temperature before being processed to serum. Tubes containing aprotinin-spiked (K2EDTA) specimens for oxytocin determinations were maintained on wet ice or cold packs before use and after collection. They were also maintained on a rocker for at least 30 min prior to processing.
Blood samples for oxytocin determination were collected into the Aprotinin spiked (K2EDTA) vacutainer tubes and processed for collection of plasma. The samples were processed by centrifuging for approximately 15 min at approximately 3000 rpm and approximately 4 °C; they were aliquoted into cryovials without anticoagulant and were immediately placed on dry ice. At termination, blood was collected from the SL group for serum chemistry, C-reactive protein, hematology, and coagulation. Blood collected for coagulation analyses was collected into tubes containing 3.8% sodium citrate and was processed for plasma per the Noble protocol. All serum and plasma samples were processed aseptically.
Each plasma sample was aliquoted into two vials of an approximately equal volume. All the collected plasma was analyzed for oxytocin levels by the LC-MS/MS method.
The bioanalytical method for quantification of oxytocin in rabbit plasma (K2EDTA) was validated following the FDA guidelines for a bioanalytical method validation at NorthEast BioAnalytical Laboratory, LLC (NEBA) (Hamden, CT, USA), via reverse phase liquid chromatography separation (Column: Zorbax SB C18 (Agilent, Santa Clara, CA, USA) 3.5 μm 150 × 4.6 mm, Security/Guard Cartridge Gemini C18 4 × 2.0 mm) and detection by tandem mass spectrometry (LC/MS/MS) using Sciex API-5000 Mass Spectrometer. Analysis of Oxytocin was performed using stable label internal standard, Oxytocin-d5. Oxytocin was received as an acetate salt and Oxytocin-d5 was received as Trifluoroacetate salt.
For quantitation, the LC/MS/MS data were acquired using Analyst® v1.6 software (Sciex, Framingham, MA, USA). […]

Take `CC[C@H](C)[C@@H]1NC(=O)[C@H](Cc2ccc(O)cc2)NC(=O)[C@@H](N)CSSC[C@@H](C(=O)N2CCC[C@H]2C(=O)N[C@@H](CC(C)C)C(=O)NCC(N)=O)NC(=O)[C@H](CC(N)=O)NC(=O)[C@H](CCC(N)=O)NC1=O` [Intramuscular (Control), Oxytocin]: the “time to rapid increase in plasma oxytocin concentration” value was not above 5 min. In addition, where the note is “plasma, linear trapezoidal, mean, n = 8”, the AUC(0-t) was determined as 4.82 ± 0.728 ng·h/mL. The half-life (plasma, mean, n = 8) is 1.02 ± 0.336 h. Where the note is “mean, n = 8”, the Tlast worked out at 2.88 ± 0.354 h. In addition, under “plasma, LC-MS/MS, mean ± SD, n = 8, SD”, the Tmax amounted to 1.13 ± 0.916 h. Under “plasma, LC-MS/MS, mean, n = 8”, this molecule showed a Cmax of 2.66 ± 0.567 ng/mL.

The AUC(0-t) is the area under the concentration-time curve up to a stated or last time point. Low readings indicate less exposure, high ones more exposure. In general, half-life refers to how long it takes for the measured level to halve. Higher therefore signals slow loss. By Tmax is commonly meant the time at which the peak concentration occurs. What is called Cmax is the maximum level reached in the sampled fluid or tissue.
